Values joined by “and” are separate entries in the source; they are usually repeats but may differ in a detail not shown here. Identical values can stand only once.
Tests used:
[1] = molecular target: Platelet-derived growth factor receptor beta (Homo sapiens) (UniProt P09619); assay: Inhibition of human PDGFRB assessed as percent of control at 2000 nM by KINOMEscan assay relative to control; design: scale not given: the % may be the effect or the level left
[2] = molecular target: Hepatocyte growth factor receptor (Homo sapiens) (UniProt P08581); assay: Inhibition of human MET assessed as percent of control at 2000 nM by KINOMEscan assay relative to control; design: scale not given: the % may be the effect or the level left
Sequence of Hepatocyte growth factor receptor (Homo sapiens) (P08581 whole entry): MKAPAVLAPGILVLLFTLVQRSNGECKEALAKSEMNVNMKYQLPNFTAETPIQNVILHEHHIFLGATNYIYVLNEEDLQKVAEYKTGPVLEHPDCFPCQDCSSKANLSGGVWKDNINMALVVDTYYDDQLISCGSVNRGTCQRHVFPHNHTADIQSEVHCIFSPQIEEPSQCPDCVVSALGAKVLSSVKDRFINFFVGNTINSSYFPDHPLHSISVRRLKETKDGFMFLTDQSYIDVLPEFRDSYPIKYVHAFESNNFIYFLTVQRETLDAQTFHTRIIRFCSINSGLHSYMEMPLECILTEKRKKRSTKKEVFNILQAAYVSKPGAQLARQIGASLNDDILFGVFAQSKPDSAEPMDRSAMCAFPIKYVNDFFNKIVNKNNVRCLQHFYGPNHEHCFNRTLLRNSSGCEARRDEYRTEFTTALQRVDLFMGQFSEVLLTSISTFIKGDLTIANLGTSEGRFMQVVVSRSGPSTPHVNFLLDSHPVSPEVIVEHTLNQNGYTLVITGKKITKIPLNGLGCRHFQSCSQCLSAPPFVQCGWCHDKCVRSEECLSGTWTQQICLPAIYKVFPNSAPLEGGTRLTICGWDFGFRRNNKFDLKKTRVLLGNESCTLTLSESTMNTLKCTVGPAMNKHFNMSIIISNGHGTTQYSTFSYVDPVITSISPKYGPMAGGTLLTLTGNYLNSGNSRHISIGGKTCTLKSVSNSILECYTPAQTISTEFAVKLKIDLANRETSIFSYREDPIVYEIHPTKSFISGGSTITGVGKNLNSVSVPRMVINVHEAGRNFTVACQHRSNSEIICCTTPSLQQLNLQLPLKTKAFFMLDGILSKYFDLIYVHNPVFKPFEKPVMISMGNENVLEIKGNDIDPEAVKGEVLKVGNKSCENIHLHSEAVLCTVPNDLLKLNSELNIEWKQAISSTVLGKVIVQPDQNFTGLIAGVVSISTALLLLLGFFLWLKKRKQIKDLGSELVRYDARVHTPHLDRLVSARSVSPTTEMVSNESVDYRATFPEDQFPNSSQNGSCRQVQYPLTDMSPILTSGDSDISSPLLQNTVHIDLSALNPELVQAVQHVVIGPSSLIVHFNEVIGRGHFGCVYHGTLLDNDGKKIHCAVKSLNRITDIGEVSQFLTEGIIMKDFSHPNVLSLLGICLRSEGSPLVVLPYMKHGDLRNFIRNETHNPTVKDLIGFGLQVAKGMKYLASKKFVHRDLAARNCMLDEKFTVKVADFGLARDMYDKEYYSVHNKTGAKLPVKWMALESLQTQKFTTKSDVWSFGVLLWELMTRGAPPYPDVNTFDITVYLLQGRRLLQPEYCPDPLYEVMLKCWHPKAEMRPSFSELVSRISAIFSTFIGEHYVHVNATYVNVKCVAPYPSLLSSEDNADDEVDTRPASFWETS

[3] = molecular target: Cyclin-dependent kinase 13 (Homo sapiens) (UniProt Q14004); assay: Inhibition of human CDC2L5 assessed as percent of control at 2000 nM by KINOMEscan assay relative to control; design: scale not given: the % may be the effect or the level left
[4] = molecular target: Mitogen-activated protein kinase 12 (Homo sapiens) (UniProt P53778); assay: Inhibition of human p38-gamma assessed as percent of control at 2000 nM by KINOMEscan assay relative to control; design: scale not given: the % may be the effect or the level left
[5] = molecular target: Mitogen-activated protein kinase 8 (Homo sapiens) (UniProt P45983); assay: Inhibition of human JNK1 assessed as percent of control at 2000 nM by KINOMEscan assay relative to control; design: scale not given: the % may be the effect or the level left
[6] = molecular target: Phosphatidylinositol 4,5-bisphosphate 3-kinase catalytic subunit delta isoform (Homo sapiens) (UniProt O00329); assay: Inhibition of human PIK3CD assessed as percent of control at 2000 nM by KINOMEscan assay relative to control; design: scale not given: the % may be the effect or the level left
[7] = molecular target: Cyclin-dependent kinase-like 5 (Homo sapiens) (UniProt O76039); assay: Inhibition of human CDKL5 assessed as percent of control at 2000 nM by KINOMEscan assay relative to control; design: scale not given: the % may be the effect or the level left
[8] = molecular target: Death-associated protein kinase 1 (Homo sapiens) (UniProt P53355); assay: Inhibition of human DAPK1 assessed as percent of control at 2000 nM by KINOMEscan assay relative to control; design: scale not given: the % may be the effect or the level left
Sequence of Death-associated protein kinase 1 (Homo sapiens) (P53355 whole entry, looked up): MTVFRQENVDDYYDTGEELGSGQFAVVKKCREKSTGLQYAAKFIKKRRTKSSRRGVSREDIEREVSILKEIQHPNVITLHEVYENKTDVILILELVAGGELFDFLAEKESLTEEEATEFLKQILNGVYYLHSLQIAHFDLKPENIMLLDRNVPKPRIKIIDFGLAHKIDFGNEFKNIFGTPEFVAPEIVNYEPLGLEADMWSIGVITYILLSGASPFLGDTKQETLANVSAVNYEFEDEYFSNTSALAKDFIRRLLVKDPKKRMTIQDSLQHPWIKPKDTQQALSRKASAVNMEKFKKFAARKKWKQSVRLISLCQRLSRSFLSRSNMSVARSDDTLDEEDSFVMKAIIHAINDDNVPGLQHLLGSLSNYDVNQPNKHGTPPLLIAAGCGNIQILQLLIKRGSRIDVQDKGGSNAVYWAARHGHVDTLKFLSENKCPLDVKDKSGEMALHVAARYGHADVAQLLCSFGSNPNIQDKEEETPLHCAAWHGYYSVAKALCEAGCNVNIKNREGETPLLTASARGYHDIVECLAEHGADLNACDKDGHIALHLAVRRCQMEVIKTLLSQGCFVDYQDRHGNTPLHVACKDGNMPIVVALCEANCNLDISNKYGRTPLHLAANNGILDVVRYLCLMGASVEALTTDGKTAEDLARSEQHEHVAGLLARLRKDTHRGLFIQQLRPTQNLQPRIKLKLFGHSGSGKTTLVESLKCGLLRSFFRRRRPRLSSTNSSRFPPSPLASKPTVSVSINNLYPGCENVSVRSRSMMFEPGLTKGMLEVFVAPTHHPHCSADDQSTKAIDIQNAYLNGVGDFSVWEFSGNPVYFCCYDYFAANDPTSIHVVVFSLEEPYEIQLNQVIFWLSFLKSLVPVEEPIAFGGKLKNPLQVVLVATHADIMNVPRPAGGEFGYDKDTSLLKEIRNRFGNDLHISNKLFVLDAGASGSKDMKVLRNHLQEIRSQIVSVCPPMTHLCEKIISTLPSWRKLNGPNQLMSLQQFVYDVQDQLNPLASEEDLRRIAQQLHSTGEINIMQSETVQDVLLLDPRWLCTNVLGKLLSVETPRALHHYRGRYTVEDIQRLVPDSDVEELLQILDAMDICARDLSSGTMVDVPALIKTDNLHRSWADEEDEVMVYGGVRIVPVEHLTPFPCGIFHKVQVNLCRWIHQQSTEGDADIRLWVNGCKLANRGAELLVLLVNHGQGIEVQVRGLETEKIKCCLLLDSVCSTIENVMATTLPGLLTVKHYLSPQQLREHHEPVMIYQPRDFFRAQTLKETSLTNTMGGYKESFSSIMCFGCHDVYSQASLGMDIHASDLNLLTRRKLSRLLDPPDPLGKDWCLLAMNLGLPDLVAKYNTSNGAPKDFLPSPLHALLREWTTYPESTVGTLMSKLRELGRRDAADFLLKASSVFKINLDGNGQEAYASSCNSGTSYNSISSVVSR

[9] = molecular target: Mitogen-activated protein kinase kinase kinase kinase 3 (Homo sapiens) (UniProt Q8IVH8); assay: Inhibition of human MAP4K3 assessed as percent of control at 2000 nM by KINOMEscan assay relative to control; design: scale not given: the % may be the effect or the level left
[10] = molecular target: Aurora kinase B (Homo sapiens) (UniProt Q96GD4); assay: Inhibition of human AURKB assessed as percent of control at 2000 nM by KINOMEscan assay relative to control; design: scale not given: the % may be the effect or the level left
[11] = molecular target: Myosin-IIIa (Homo sapiens) (UniProt Q8NEV4); assay: Inhibition of human MYO3A assessed as percent of control at 2000 nM by KINOMEscan assay relative to control; design: scale not given: the % may be the effect or the level left
[12] = molecular target: Mitogen-activated protein kinase kinase kinase 9 (Homo sapiens) (UniProt P80192); assay: Inhibition of human MLK1 assessed as percent of control at 2000 nM by KINOMEscan assay relative to control; design: scale not given: the % may be the effect or the level left
[13] = molecular target: Protein kinase C iota type (Homo sapiens) (UniProt P41743); assay: Inhibition of human PRKCI assessed as percent of control at 2000 nM by KINOMEscan assay relative to control; design: scale not given: the % may be the effect or the level left
[14] = molecular target: Inhibitor of nuclear factor kappa-B kinase subunit epsilon (Homo sapiens) (UniProt Q14164); assay: Inhibition of human IKK-epsilon assessed as percent of control at 2000 nM by KINOMEscan assay relative to control; design: scale not given: the % may be the effect or the level left
[15] = molecular target: Hormonally up-regulated neu tumor-associated kinase (Homo sapiens) (UniProt P57058); assay: Inhibition of human HUNK assessed as percent of control at 2000 nM by KINOMEscan assay relative to control; design: scale not given: the % may be the effect or the level left
Sequence of Hormonally up-regulated neu tumor-associated kinase (Homo sapiens) (P57058 whole entry): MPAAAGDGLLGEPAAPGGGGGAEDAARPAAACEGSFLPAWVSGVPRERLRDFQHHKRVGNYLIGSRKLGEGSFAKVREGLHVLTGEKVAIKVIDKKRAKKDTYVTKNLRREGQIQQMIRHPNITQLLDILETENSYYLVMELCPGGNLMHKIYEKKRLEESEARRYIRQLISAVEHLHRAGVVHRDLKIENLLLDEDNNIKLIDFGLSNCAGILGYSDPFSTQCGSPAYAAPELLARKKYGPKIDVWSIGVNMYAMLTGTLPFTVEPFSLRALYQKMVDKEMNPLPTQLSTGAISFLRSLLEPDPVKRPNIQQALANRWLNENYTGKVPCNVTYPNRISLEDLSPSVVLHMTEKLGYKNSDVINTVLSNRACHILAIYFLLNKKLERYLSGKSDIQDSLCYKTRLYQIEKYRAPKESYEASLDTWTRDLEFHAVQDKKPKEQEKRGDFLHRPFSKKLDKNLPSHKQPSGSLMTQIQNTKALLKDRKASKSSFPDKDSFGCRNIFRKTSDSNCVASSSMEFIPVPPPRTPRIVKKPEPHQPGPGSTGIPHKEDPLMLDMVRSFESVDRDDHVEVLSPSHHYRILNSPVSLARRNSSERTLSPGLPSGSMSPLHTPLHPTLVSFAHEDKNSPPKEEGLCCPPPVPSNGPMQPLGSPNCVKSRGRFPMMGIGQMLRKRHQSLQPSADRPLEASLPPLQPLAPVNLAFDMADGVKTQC

[16] = molecular target: Cyclin-dependent kinase 8/19 (Homo sapiens, UniProt P49336+Q9BWU1); settings: ST-2
Description: Inhibition of CDK8/CDK19 in ST2 cells by alkaline phosphatase activity assay

[17] = molecular target: Non-receptor tyrosine-protein kinase TYK2 (Homo sapiens) (UniProt P29597); assay: Inhibition of human TYK2 JH1 catalytic domain assessed as percent of control at 2000 nM by KINOMEscan assay relative to control; design: scale not given: the % may be the effect or the level left
[18] = molecular target: Serine/threonine-protein kinase Sgk3 (Homo sapiens) (UniProt Q96BR1); assay: Inhibition of human SGK3 assessed as percent of control at 2000 nM by KINOMEscan assay relative to control; design: scale not given: the % may be the effect or the level left
[19] = molecular target: Serine/threonine-protein kinase 33 (Homo sapiens) (UniProt Q9BYT3); assay: Inhibition of human STK33 assessed as percent of control at 2000 nM by KINOMEscan assay relative to control; design: scale not given: the % may be the effect or the level left
[20] = molecular target: Serine/threonine-protein kinase RIO1 (Homo sapiens) (UniProt Q9BRS2); assay: Inhibition of human RIOK1 assessed as percent of control at 2000 nM by KINOMEscan assay relative to control; design: scale not given: the % may be the effect or the level left
[21] = system: Epidermal growth factor receptor (Homo sapiens), P00533 [UNDEFINED MUTATION]; assay: Inhibition of human EGFR […] mutant assessed as percent of control at 2000 nM by KINOMEscan assay relative to control; design: scale not given: the % may be the effect or the level left
[22] = molecular target: Phosphatidylinositol 4-kinase beta (Homo sapiens) (UniProt Q9UBF8); assay: Inhibition of human PIK4CB assessed as percent of control at 2000 nM by KINOMEscan assay relative to control; design: scale not given: the % may be the effect or the level left
Sequence of Phosphatidylinositol 4-kinase beta (Homo sapiens) (Q9UBF8 2-816 limits assumed): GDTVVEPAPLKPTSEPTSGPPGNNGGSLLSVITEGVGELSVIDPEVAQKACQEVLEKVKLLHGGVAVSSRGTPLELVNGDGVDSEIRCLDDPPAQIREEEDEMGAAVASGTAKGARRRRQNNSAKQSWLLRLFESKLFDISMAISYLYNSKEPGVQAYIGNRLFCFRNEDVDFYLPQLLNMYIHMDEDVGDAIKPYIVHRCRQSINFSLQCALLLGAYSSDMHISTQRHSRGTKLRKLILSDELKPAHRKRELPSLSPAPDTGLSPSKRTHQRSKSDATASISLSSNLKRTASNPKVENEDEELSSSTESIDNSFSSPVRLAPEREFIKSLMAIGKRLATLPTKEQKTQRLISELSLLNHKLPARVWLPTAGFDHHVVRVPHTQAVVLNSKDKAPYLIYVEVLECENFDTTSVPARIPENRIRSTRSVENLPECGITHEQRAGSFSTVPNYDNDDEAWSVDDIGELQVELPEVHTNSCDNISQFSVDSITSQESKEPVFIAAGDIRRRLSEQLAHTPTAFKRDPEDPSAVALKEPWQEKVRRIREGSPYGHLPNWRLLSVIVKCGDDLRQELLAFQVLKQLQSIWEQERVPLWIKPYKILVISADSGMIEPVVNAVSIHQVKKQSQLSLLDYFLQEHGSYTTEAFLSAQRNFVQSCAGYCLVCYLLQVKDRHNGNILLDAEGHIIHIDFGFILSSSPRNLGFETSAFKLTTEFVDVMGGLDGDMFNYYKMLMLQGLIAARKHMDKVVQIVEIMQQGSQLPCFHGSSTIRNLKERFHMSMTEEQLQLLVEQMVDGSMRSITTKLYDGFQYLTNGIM

[23] = molecular target: Serine/threonine-protein kinase STK11 (Homo sapiens) (UniProt Q15831); assay: Inhibition of human LKB1 assessed as percent of control at 2000 nM by KINOMEscan assay relative to control; design: scale not given: the % may be the effect or the level left
[24] = molecular target: Serine/threonine-protein kinase tousled-like 1 (Homo sapiens) (UniProt Q9UKI8); assay: Inhibition of human TLK1 assessed as percent of control at 2000 nM by KINOMEscan assay relative to control; design: scale not given: the % may be the effect or the level left
[25] = molecular target: Serine/threonine-protein kinase DCLK3 (Homo sapiens) (UniProt Q9C098); assay: Inhibition of human DCAMKL3 assessed as percent of control at 2000 nM by KINOMEscan assay relative to control; design: scale not given: the % may be the effect or the level left
Sequence of Serine/threonine-protein kinase DCLK3 (Homo sapiens) (Q9C098 whole entry): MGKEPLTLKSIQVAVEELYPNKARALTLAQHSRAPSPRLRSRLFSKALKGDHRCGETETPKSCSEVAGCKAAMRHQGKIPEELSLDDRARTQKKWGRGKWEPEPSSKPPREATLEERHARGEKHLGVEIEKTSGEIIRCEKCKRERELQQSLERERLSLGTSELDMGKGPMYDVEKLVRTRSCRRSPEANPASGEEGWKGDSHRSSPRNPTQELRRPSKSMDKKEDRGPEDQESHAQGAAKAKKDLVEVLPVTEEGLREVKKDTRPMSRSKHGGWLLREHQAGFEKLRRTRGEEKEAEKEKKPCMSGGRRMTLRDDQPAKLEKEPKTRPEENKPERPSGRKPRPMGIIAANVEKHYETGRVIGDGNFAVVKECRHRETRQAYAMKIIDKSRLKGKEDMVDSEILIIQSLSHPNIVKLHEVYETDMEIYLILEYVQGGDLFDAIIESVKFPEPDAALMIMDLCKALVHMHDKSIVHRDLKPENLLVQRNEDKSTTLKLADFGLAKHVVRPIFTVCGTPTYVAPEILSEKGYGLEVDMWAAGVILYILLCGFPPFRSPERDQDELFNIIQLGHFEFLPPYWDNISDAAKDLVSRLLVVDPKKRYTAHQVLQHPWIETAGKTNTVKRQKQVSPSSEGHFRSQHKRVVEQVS

[26] = molecular target: Citron Rho-interacting kinase (Homo sapiens) (UniProt O14578); assay: Inhibition of human CIT assessed as percent of control at 2000 nM by KINOMEscan assay relative to control; design: scale not given: the % may be the effect or the level left
[27] = molecular target: Serine/threonine-protein kinase ULK1 (Homo sapiens) (UniProt O75385); assay: Inhibition of human ULK1 assessed as percent of control at 2000 nM by KINOMEscan assay relative to control; design: scale not given: the % may be the effect or the level left
[28] = system: Epidermal growth factor receptor (Homo sapiens), P00533 [T790M]; assay: Inhibition of human EGFR T790M mutant assessed as percent of control at 2000 nM by KINOMEscan assay relative to control; design: scale not given: the % may be the effect or the level left
[29] = molecular target: RAC-gamma serine/threonine-protein kinase (Homo sapiens) (UniProt Q9Y243); assay: Inhibition of human AKT3 assessed as percent of control at 2000 nM by KINOMEscan assay relative to control; design: scale not given: the % may be the effect or the level left
[30] = molecular target: Casein kinase I isoform gamma-2 (Homo sapiens) (UniProt P78368); assay: Inhibition of human CSNK1G2 assessed as percent of control at 2000 nM by KINOMEscan assay relative to control; design: scale not given: the % may be the effect or the level left
[31] = molecular target: Serine/threonine-protein kinase MRCK gamma (Homo sapiens) (UniProt Q6DT37); assay: Inhibition of human DMPK2 assessed as percent of control at 2000 nM by KINOMEscan assay relative to control; design: scale not given: the % may be the effect or the level left

Compound: CN(C)C(=O)c1ccc(N2CCCN(c3ccnc4sc(C(N)=O)c(N)c34)CC2)cc1
- Activity [1]: 100% and 93%
- Activity [2]: 99% and 92%
- Activity [3]: 71% and 80%
- Activity [4]: 98% and 100%
- Activity [5]: 68%
- Activity ([5]; INHIBITOR): 30%
- Activity [6]: 94% and 71%
- Activity [7]: 100% and 84%
- Activity [8]: 92% and 88%
- Activity [9]: 91% and 95%
- Activity [10]: 91% and 90%
- Activity [11]: 100%
- Activity [12]: 95% and 92%
- Activity [13]: 100%
- Activity [14]: 100%
- Activity [15]: 99% and 100%
- EC200 [16]: 31.9 nM
- Activity [17]: 95% and 82%
- Activity [18]: 79% and 80%
- Activity [19]: 100%
- Activity [20]: 100%
- Activity [21]: 86% and 100%
- Activity [22]: 65%
- Activity ([22]; INHIBITOR): 33%
- Activity [23]: 100% and 87%
- Activity [24]: 97% and 85%
- Activity [25]: 91% and 100%
- Activity [26]: 51% and 65%
- Activity [27]: 96% and 72%
- Activity [28]: 98% and 87%
- Activity [29]: 97% and 100%
- Activity [30]: 77% and 69%
- Activity [31]: 93% and 94%
